Patent publication US11530244B2, “Cyclic polypeptides for PCSK9 inhibition” (priority 2018, dated 2022)
Starred links: 1 amine or outer side, 2 acyl side, 3 side chain; linkers in the order of their positions; H or OH if unused. Positions of bridges follow the written chain, without caps; N, C: chain ends. Non-standard residues stand in square brackets, D forms with d. Residues, ends and D or L forms follow the SMILES beside them. Phe(3-CH2NH2) = O=C([C@H](Cc1cccc(CN[*:3])c1)N[*:1])[*:2]; NHCH2(1,3-C6H4)CH2CO = O=C(Cc1cccc(CN[*:1])c1)[*:2]; Phe(4-COOH) = N[C@@H](Cc1ccc(C(=O)O)cc1)C(=O)O; Trp(5-F) = N[C@@H](Cc1c[nH]c2ccc(F)cc12)C(=O)O; X30 = COc1ccc(C[C@H](N[*:1])C(=O)[*:2])cc1Cl; X11 = COc1ccc(C[C@H](N[*:1])C(=O)[*:2])cc1C; Pro(4S-NH2) = N[C@@H]1CN[C@H](C(=O)O)C1; X4 = O=C(CCSCc1cccc(CSCCN[*:1])c1)[*:2]; Orn(N3) = [N-]=[N+]=NCCC[C@H](N)C(=O)O; X47 = O=C(O)CCCCC(N[*:1])C(=O)[*:2]; d(aThr) = C[C@@H](O)[C@@H](N)C(=O)O; X21 = O=C(Cc1cccc(CN[*:2])c1)[*:1]; X39 = c1cc(CCSCN[*:2])cc(C[*:1])c1; X7 = O=C(Cc1ccc(CN[*:1])cc1)[*:2]; hLys = NCCCCC[C@H](N)C(=O)O; αMeP = C[C@@]1(C(=O)O)CCCN1; Mpa = O=C(O)CCS

Key:
[1] = target: human PCSK9 / human LDLR EGFa domain interaction (Homo sapiens (Human), UniProt Q8NBP7); test: TR-FRET assay of inhibition of the PCSK9-LDLR protein-protein interaction; format: binding; settings: TR-FRET, 20 nM human PCSK9, 20 nM human LDLR EGFa domain, 2 hours room temperature; read-out: IC50
Procedure, shortened: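 Biotinylated PCSK9 (20 nM) and His-tagged LDLR EGFa domain (20 nM) were incubated 2 h at room temperature with 5 nM Ulight-streptavidin and 5 nM Eu-anti-His in HEPES/NaCl/CaCl2 buffer with 0.01% BSA and 0.01% P20. TR-FRET was read; half-maximal inhibitory concentrations came from 4-parameter dose-response fits.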

PCSK9 = PCSK9 (Homo sapiens (Human), UniProt Q8NBP7); test: PCSK9 Alexa FRET Standard assay (displacement of AlexaFluor647 tagged cyclic peptide Reagent A); format: binding; settings: PCSK9 Alexa FRET Standard assay, 0.5 nM PCSK9, 20 nM AF cyclic peptide Reagent A; read-out: IC50
Procedure, shortened: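 TR-FRET displacement: 0.5 nM biotinylated PCSK9 with 1.25 nM Strep-Eu and 20 nM AlexaFluor-tagged cyclic peptide (final) in 50 mM HEPES pH 7.4, 0.15 M NaCl, 5 mM CaCl2, 0.01% BSA, 0.01% P20, ≥2 h at room temperature. IC50 from sigmoidal fit, converted to Ki via peptide KD; falling Eu counts flagged false positives.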

PCSK9, sequence (Q8NBP7 153-692): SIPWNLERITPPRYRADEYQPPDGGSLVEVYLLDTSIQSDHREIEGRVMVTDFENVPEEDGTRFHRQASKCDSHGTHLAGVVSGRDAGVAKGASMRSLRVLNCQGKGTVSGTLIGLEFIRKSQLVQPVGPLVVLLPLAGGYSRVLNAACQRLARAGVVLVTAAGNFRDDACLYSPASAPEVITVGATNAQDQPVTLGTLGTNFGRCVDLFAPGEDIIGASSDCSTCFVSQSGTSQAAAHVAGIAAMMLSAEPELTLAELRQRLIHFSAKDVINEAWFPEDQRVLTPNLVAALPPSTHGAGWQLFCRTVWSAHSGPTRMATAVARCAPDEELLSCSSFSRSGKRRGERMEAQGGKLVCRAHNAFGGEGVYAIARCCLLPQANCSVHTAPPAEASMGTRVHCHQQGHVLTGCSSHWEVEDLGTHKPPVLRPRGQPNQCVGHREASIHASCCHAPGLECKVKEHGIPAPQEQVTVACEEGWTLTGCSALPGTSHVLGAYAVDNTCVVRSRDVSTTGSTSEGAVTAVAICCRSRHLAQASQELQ
human PCSK9 / human LDLR EGFa domain interaction, sequence (Q8NBP7 153-692): as above
human PCSK9 / human LDLR EGFa domain interaction, sequence (Q8NBP7 31-152 partner): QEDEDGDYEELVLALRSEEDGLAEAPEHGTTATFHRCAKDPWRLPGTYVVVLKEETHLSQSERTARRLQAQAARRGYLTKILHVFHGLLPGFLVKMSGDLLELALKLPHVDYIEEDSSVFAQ

Row | Structure (SMILES) | IC50 [1] | IC50 (PCSK9)
1 | COc1ccc(C[C@@H]2NC(=O)[C@@H]([C@@H](C)O)NC(=O)[C@H](CC(=O)O)NC(=O)[C@H](Cc3c[nH]c4ccc(F)cc34)NC(=O)[C@H](Cc3cccc(CN)c3)NC(=O)[C@@H](C)NC(=O)[C@H](C)NC(=O)CCSCc3cccc(c3)CSCCNC(=O)[C@]3(C)CCCN3C2=O)cc1 [Compound 384] (cyclo(A[dA][Phe(3-CH2NH2)][Trp(5-F)]D[d(aThr)]Y(Me)[αMeP][X4])) | 21000 to 50000 nM | 21000 to 50000 nM
2 | COc1ccc(C[C@@H]2NC(=O)[C@H](Cc3c[nH]cn3)NC(=O)[C@H](CC(=O)O)NC(=O)[C@H](Cc3c[nH]c4ccc(F)cc34)NC(=O)[C@H](Cc3c[nH]c4ccc(F)cc34)NC(=O)[C@@H](C)NC(=O)[C@H](CCCCN)NC(=O)CCSCc3cccc(c3)CSCCNC(=O)[C@]3(C)CCCN3C2=O)cc1Cl [Compound 386] (cyclo(DH[X30][αMeP][X4]K[dA][Trp(5-F)][Trp(5-F)])) | 0.1 to 100 nM | 100 to 1000 nM
3 | COc1ccc(C[C@@H]2NC(=O)[C@H](Cc3c[nH]cn3)NC(=O)[C@H](CC(=O)O)NC(=O)[C@H](Cc3c[nH]c4ccc(F)cc34)NC(=O)[C@H](Cc3c[nH]c4ccc(F)cc34)NC(=O)[C@@H](C)NC(=O)[C@H](CCCCN)NC(=O)CCSCc3cccc(c3)CSCCNC(=O)[C@]3(C)CCCN3C2=O)cc1C [Compound 387] (cyclo(DH[X11][αMeP][X4]K[dA][Trp(5-F)][Trp(5-F)])) | 0.1 to 100 nM | 100 to 1000 nM
4 | COc1ccc(C[C@@H]2NC(=O)C(CCCCC(=O)O)NC(=O)[C@@H]3C[C@H](N)CN3C(=O)[C@H](Cc3c[nH]c4ccc(F)cc34)NC(=O)[C@H](Cc3c[nH]c4ccc(F)cc34)NC(=O)[C@@H](C)NC(=O)[C@H](CCCN=[N+]=[N-])NC(=O)CCSCc3cccc(c3)CCSCNC(=O)[C@]3(C)CCCN3C2=O)cc1 (stereo partly drawn) [Compound 388] ([Mpa][Orn(N3)][dA][Trp(5-F)][Trp(5-F)][Pro(4S-NH2)][X47]Y(Me)[αMeP]; linker 1-C via X39) | 0.1 to 100 nM | 100 to 1000 nM
5 | COc1ccc(C[C@@H]2NC(=O)[C@H](Cc3cnc[nH]3)NC(=O)[C@H](CC(=O)O)NC(=O)[C@H](Cc3c[nH]c4ccc(F)cc34)NC(=O)[C@H](Cc3c[nH]c4ccc(F)cc34)NC(=O)[C@@H](C)NC(=O)Cc3cccc(c3)CNC(=O)c3ccc(cc3)C[C@@H](C(N)=O)NC(=O)[C@]3(C)CCCN3C2=O)cc1 [Compound 390] ([NHCH2(1,3-C6H4)CH2CO][dA][Trp(5-F)][Trp(5-F)]DHY(Me)[αMeP][Phe(4-COOH)]-NH2; lactam N-9) | 0.1 to 100 nM | 100 to 1000 nM
6 | COc1ccc(C[C@@H]2NC(=O)[C@H](Cc3cnc[nH]3)NC(=O)[C@H](CC(=O)O)NC(=O)[C@H](Cc3c[nH]c4ccc(F)cc34)NC(=O)[C@H](Cc3c[nH]c4ccc(F)cc34)NC(=O)[C@@H](C)NC(=O)Cc3ccc(cc3)CNC(=O)c3ccc(cc3)C[C@@H](C(N)=O)NC(=O)[C@]3(C)CCCN3C2=O)cc1 [Compound 391] ([X7][dA][Trp(5-F)][Trp(5-F)]DHY(Me)[αMeP][Phe(4-COOH)]-NH2; lactam N-9) | 0.1 to 100 nM | 100 to 1000 nM
7 | COc1ccc(C[C@@H]2NC(=O)[C@H](Cc3cnc[nH]3)NC(=O)[C@H](CC(=O)O)NC(=O)[C@H](Cc3c[nH]c4ccc(F)cc34)NC(=O)[C@H](Cc3c[nH]c4ccc(F)cc34)NC(=O)[C@H](C)NC(=O)[C@H](NC(C)=O)CCc3cn(nn3)-c3ccc(cc3)C[C@@H](C(N)=O)NC(=O)[C@]3(C)CCCN3C2=O)cc1 [Compound 392] | 0.1 to 100 nM | 100 to 1000 nM
8 | COc1ccc(C[C@@H]2NC(=O)[C@H](Cc3cnc[nH]3)NC(=O)[C@H](CC(=O)O)NC(=O)[C@H](Cc3c[nH]c4ccc(F)cc34)NC(=O)[C@H](Cc3c[nH]c4ccc(F)cc34)NC(=O)[C@@H](C)NC(=O)[C@H](CCCCN)NC(=O)[C@@H](NC(C)=O)CCCCCNC(=O)c3ccc(cc3)C[C@@H](C(N)=O)NC(=O)[C@]3(C)CCCN3C2=O)cc1 [Compound 393] (Ac-[hLys]K[dA][Trp(5-F)][Trp(5-F)]DHY(Me)[αMeP][Phe(4-COOH)]-NH2; lactam 1-10) | 0.1 to 100 nM | 100 to 1000 nM
9 | COc1ccc(C[C@@H]2NC(=O)[C@H](Cc3cnc[nH]3)NC(=O)[C@H](CC(=O)O)NC(=O)[C@H](Cc3c[nH]c4ccc(F)cc34)NC(=O)[C@H](Cc3c[nH]c4ccc(F)cc34)NC(=O)[C@@H](C)NC(=O)[C@H](NC(C)=O)CCCCNC(=O)Cc3cccc(c3)CNC(=O)C[C@@H](C(N)=O)NC(=O)[C@]3(C)CCCN3C2=O)cc1 [Compound 394] (Ac-[dK][dA][Trp(5-F)][Trp(5-F)]DHY(Me)[αMeP]D-NH2; linker 1-9 via X21) | 100 to 1000 nM | 100 to 1000 nM
